# “Also recorded” adds a separate entry of the source. Like-named read-outs stand apart in the source and are kept apart here.
# Key:
# ulcerative colitis = settings: chronically active, steroid-resistant or steroid-dependant ulcerative colitis; cited from earlier work
# [1] = system: phytohaemagglutinin stimulated lymphocytes; assay: Lymphocyte steroid sensitivity (Imax) with and without basiliximab, 32 subjects (Example 2); format: cell-based, human
# Protocol: Peripheral blood lymphocytes are isolated from 32 subjects (25 healthy volunteers and 7 patients with quiescent Ulcerative Colitis), on 41 occasions, using buoyant density centrifugation. Lymphocyte steroid sensitivity is assessed by measuring the antiproliferative effect of dexamethasone (DEX) on phytohaemagglutinin stimulated lymphocytes. Maximum steroid induced suppression is expressed as a % of control lymphocyte proliferation (Imax). Imax is measured in the absence and presence of basiliximab (1 mg/L).
# [2] = system: PHA-stimulated lymphocytes; assay: Lymphocyte steroid sensitivity: dexamethasone inhibition of PHA-stimulated proliferation with and without basiliximab (Example 1); format: cell-based, human; settings: for Steroid-sensitive (SS) or Steroid-resistant (SR): class by Imax with dexamethasone alone; for PHA-stimulated lymphocyte proliferation (cpm): dexamethasone 10^-6 mol/l; for PHA-stimulated lymphocyte proliferation (cpm) / % suppression / Imax (%): basiliximab 1 mg/l where added; for % suppression: dexamethasone 10^-7 mol/l; for Imax (%): inhibition of proliferation at dexamethasone 10^-6 mol/l
# Protocol: (§1) Measurement of lymphocyte steroid sensitivity: The sensitivity of peripheral blood lymphocytes to glucocorticoids is assessed in a functional assay i.e. an in vitro proliferation assay stimulated by phytohaemagglutinin (PHA) and inhibited by dexamethasone. (Hearing S D, et al. Gut 1999; 45:382-8; Hearing S D, et al. J Clin Endocrinol Metab 1999; 84:4149-54). Peripheral blood samples are collected at 09:00 hours, and peripheral blood mononuclear cells (PBMC) are separated by buoyancy centrifugation. Buoyancy centrifugation includes the separation of lymphocytes from the blood sample by centrifugation over a ficol gradient. Ficol allows red blood cells to fall through, but prevents the through-movement of lymphocytes. Peripheral blood mononuclear cells (lymphocytes and marocyes) are collected from the ficol/plasma interface. PBMC proliferation is stimulated with PHA and inhibited with dexamethasone at serial 10 fold dilutions between 10^−6 and 10^−10 mol/1. i.e. 10^−6, 10^−7, 10^−8, 10^−9, 10^−10 mol/1. Cell proliferation is measured by tritiated thymidine uptake i.e. after 2 days of incubation, radioisotape labelled thymidine (^3H-thymidine) is added to the lymphocyte culture medium and became incorporated into the DNA of proliferating lymphocyes. After 6 hours the cells are transferred from the incubator and collected on a filter mat using a cell harvester. The cells are then washed out of the well. The lymphocyte DNA that has incorporated the thymidine is trapped in the filter paper. When radioactivity levels are measured the wells which contain high numbers of actively proliferating lymphocytes (and thus will have incorporated lots of thymidine into the DNA) will have high radioactivity levels. […] The results are calculated as mean counts per minute (cpm) of triplicate cultures. Thymidine incorporation for each concentration of dexamethasone is compared to that of PHA stimulated T lymphocytes in the absence of dexamethasone, and expressed as a percentage of the uninhibited positive control. The effect of different concentrations of basiliximab on lymphocyte proliferation is also studied. In addition, an equal concentration of basiliximab is added to each cell culture medium at all concentrations of dexamethasone and the antiproliferative effect measured.
# Effect of […]® on steroid sensitivity: For all eight subjects, PHA-stimulated lymphocytes are cultured in the presence of increasing concentrations of dexamethasone (10^−10-10^−6 mol/l) in the presence and absence of basiliximab (1 mg/l). In previous studies of ulcerative colitis carried out by the inventor, maximal suppression (Imax)<60% correlated with a poor response to steroid therapy (clinical steroid resistance). The exact value of Imax cannot be measured as it is the inhibition at an infinitely high level of dexamethasone. Thus, the percentage inhibition of proliferation observed at the maximum dexamethasone concentration applied (10^−6 mol/l) is used as the measure of Imax. In practice, there is good agreement between Imax and the estimated asymptotic value for maximal inhibition obtained from dose-response curves (Hearing S D et al (1999) Clin. Endoctrinol. Metab 84:4149-54). A concentration of dexamethasone of 10^−7 mol/l is approximately equivalent in terms of glucocorticoid activity to the serum concentrations of hydrocortisone achieved with intravenous therapy at standard doses. Thus, to make comparisons with the potential effect of basiliximab in vivo, the steroid sensitising effect of basiliximab at this concentration of dexamethasone may also be of interest. […] The subjects are shown in decreasing order of steroid sensitivity (with the most sensitive on the left).
# steroid-resistant asthma = settings: after 8 weeks; cited from earlier work
# [3] = system: peripheral blood lymphocytes; settings: high concentrations of prednisolone, cited from earlier work
# [4] = system: PHA stimulated peripheral blood lymphocytes; assay: PHA-induced lymphocyte proliferation (tritiated thymidine uptake), basiliximab in the absence of steroids; format: cell-based, human; settings: for PHA-induced cell proliferation (cpm) / Inhibition (%): basiliximab 1 mg/l, absence of steroids; for Inhibition (%): vs PHA alone
# Protocol: as §1
# Effect of […]® on lymphocyte proliferation: Serum concentration of 0.2 mg/l of basiliximab produces >90% IL-2R occupancy. To test the antiproliferative in vitro effect of basiliximab, various concentrations of between 0.01 and 10 mg/l of basiliximab are incubated with lymphocytes in the absence of steroids. These assays confirm that an in vitro concentration of >0.1 to 0.3 mg/l basiliximab is required to produce the in vitro effect of basiliximab. For further studies on the same subjects, a concentration of 1 mg/l is used. In total, the same eight subjects are studied in each experiment. The effect of basiliximab at a concentration of 1 mg/l on PHA-induced cell proliferation in the absence of steroids is shown in Table 1
# [5] = at the dosage levels employed; cited from earlier work
# IL-2R = biological target: T1, IL-2R (Homo sapiens, UniProt P01589); settings: serum concentration of 0.2 mg/l; cited from earlier work
# T1 sequence (P01589 22-272): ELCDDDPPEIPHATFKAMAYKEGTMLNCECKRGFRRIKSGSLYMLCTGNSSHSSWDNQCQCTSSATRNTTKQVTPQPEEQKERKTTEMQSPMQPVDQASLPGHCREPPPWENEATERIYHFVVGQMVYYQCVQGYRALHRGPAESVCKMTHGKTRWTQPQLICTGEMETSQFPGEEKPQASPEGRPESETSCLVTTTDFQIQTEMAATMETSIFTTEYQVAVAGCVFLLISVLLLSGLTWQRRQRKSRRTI
compound,measurement,setting,value
Cn1cnc([N+](=O)[O-])c1Sc1ncnc2nc[nH]c12 [Azathioprine],delayed onset of action,ulcerative colitis,34 months
"C[C@@H]1C[C@H]2[C@@H]3CCC4=CC(=O)C=C[C@]4(C)[C@@]3(F)[C@@H](O)C[C@]2(C)[C@@]1(O)C(=O)CO [Dexamethasone, dexamethasone]",Median Imax (%),"[1]; 32 subjects on 41 occasions, basiliximab 1 mg/L where added",78.0%
same,Steroid-sensitive (SS) or Steroid-resistant (SR),[2]; subject 1,SS (steroid-sensitive (Imax>60%; subjects 1-4))
same,PHA-stimulated lymphocyte proliferation (cpm),[2]; subject 1,3100 cpm
same,% suppression,[2]; subject 1,87%
same,Imax (%),[2]; subject 1,92%
same,Steroid-sensitive (SS) or Steroid-resistant (SR),[2]; subject 2,SS (steroid-sensitive (Imax>60%; subjects 1-4))
same,PHA-stimulated lymphocyte proliferation (cpm),[2]; subject 2,4109 cpm
same,% suppression,[2]; subject 2,79%
same,Imax (%),[2]; subject 2,84%
same,Steroid-sensitive (SS) or Steroid-resistant (SR),[2]; subject 3,SS (steroid-sensitive (Imax>60%; subjects 1-4))
same,PHA-stimulated lymphocyte proliferation (cpm),[2]; subject 3,9477 cpm
same,% suppression,[2]; subject 3,65%
same,Imax (%),[2]; subject 3,77%
same,Steroid-sensitive (SS) or Steroid-resistant (SR),[2]; subject 4,SS (steroid-sensitive (Imax>60%; subjects 1-4))
same,PHA-stimulated lymphocyte proliferation (cpm),[2]; subject 4,11568 cpm
same,% suppression,[2]; subject 4,42%
same,Imax (%),[2]; subject 4,64%
same,Steroid-sensitive (SS) or Steroid-resistant (SR),[2]; subject 5,SR (steroid-resistant (Imax<60%; subjects 5-8))
same,PHA-stimulated lymphocyte proliferation (cpm),[2]; subject 5,21685 cpm
same,% suppression,[2]; subject 5,20%
same,Imax (%),[2]; subject 5,52%
same,Steroid-sensitive (SS) or Steroid-resistant (SR),[2]; subject 6,SR (steroid-resistant (Imax<60%; subjects 5-8))
same,PHA-stimulated lymphocyte proliferation (cpm),[2]; subject 6,36495 cpm
same,% suppression,[2]; subject 6,32%
same,Imax (%),[2]; subject 6,45%
same,Steroid-sensitive (SS) or Steroid-resistant (SR),[2]; subject 7,SR (steroid-resistant (Imax<60%; subjects 5-8))
same,PHA-stimulated lymphocyte proliferation (cpm),[2]; subject 7,18669 cpm
same,% suppression,[2]; subject 7,29%
same,Imax (%),[2]; subject 7,35%
same,Steroid-sensitive (SS) or Steroid-resistant (SR),[2]; subject 8,SR (steroid-resistant (Imax<60%; subjects 5-8))
same,PHA-stimulated lymphocyte proliferation (cpm),[2]; subject 8,24681 cpm
same,% suppression,[2]; subject 8,36%
same,Imax (%),[2]; subject 8,33%
CN(Cc1cnc2nc(N)nc(N)c2n1)c1ccc(C(=O)N[C@@H](CCC(=O)O)C(=O)O)cc1 [methotrexate],bronchial muscosal inflammation,steroid-resistant asthma,reduced
same,lymphocyte steroid sensitivity,steroid-resistant asthma,increased
C[C@]12C=CC(=O)C=C1CC[C@@H]1[C@@H]2[C@@H](O)C[C@@]2(C)[C@H]1CC[C@]2(O)C(=O)CO [prednisolone],percentage of apoptotic cells,[3]; lymphocytes of steroid-resistant SLE group,44.8%
same,percentage of apoptotic cells,[3]; lymphocytes of steroid-sensitive SLE group,68.8%
basiliximab,Enhancement of the anti-proliferative effect of DEX,"[1]; basiliximab 1 mg/L, Wilcoxon signed-rank test, p<0.0001",significantly enhanced; also recorded: marked in vitro steroid enhancing effect
same,Modulation of steroid-resistant subjects (Imax<60%) to steroid-sensitive,"[1]; in vitro, basiliximab 1 mg/L",All 8 steroid-resistant subjects (Imax<60%) are modulated (in vitro) to steroid-sensitive
same,in vitro concentration required to produce the in vitro (antiproliferative) effect,[4]; 0.01 to 10 mg/l incubated with lymphocytes in the absence of steroids,0.1 to 0.3 mg/L
same,PHA-induced cell proliferation (cpm),[4]; mean of 8 subjects,23943 cpm
same,Inhibition (%),[4]; mean of 8 subjects,37.8%
same,PHA-induced cell proliferation (cpm),[4]; subject 1,21827 cpm
same,Inhibition (%),[4]; subject 1,43.5%
same,PHA-induced cell proliferation (cpm),[4]; subject 2,15157 cpm
same,Inhibition (%),[4]; subject 2,39.9%
same,PHA-induced cell proliferation (cpm),[4]; subject 3,27239 cpm
same,Inhibition (%),[4]; subject 3,33.3%
same,PHA-induced cell proliferation (cpm),[4]; subject 4,27538 cpm
same,Inhibition (%),[4]; subject 4,15.4%
same,PHA-induced cell proliferation (cpm),[4]; subject 5,21446 cpm
same,Inhibition (%),[4]; subject 5,52.8%
same,PHA-induced cell proliferation (cpm),[4]; subject 6,35003 cpm
same,Inhibition (%),[4]; subject 6,47.1%
same,PHA-induced cell proliferation (cpm),[4]; subject 7,16122 cpm
same,Inhibition (%),[4]; subject 7,44.2%
same,PHA-induced cell proliferation (cpm),[4]; subject 8,27209 cpm
same,Inhibition (%),[4]; subject 8,26.4%
same,Side-effects / safety of administration,[5],safe
same,IL-2R occupancy,IL-2R,> 90%
same,Modulation of lymphocyte steroid sensitivity (LSS) of steroid-resistant subjects,"[2]; effect on Imax, subjects 5-8, basiliximab 1 mg/l",all become Steroid-sensitive
daclizumab,Side-effects / safety of administration,[5],safe

# — patent publication US20090274691A1, “Use of CD25 binding molecules in steroid-resistant patients” (priority 2001, published 2009)
